The values below come from publication PMC9414584, “Synthesis and Biological Evaluation of Indole-2-Carboxamides with Potent Apoptotic Antiproliferative Activity as EGFR/CDK2 Dual Inhibitors” (Pharmaceuticals, 2022).

The term viability denotes a read-out of living cells in per cent, often relative to untreated cells. Low readings indicate more harm to the cells, high ones less harm to the cells. Usually IC50 stands for the point on the concentration scale where inhibition reaches its midpoint. One may read the melting point as the temperature of the solid-liquid transition. For orientation: GI50 means the concentration that inhibits growth by half.

Data set [1] can be described thus: Cell viability assay (MTT) on MCF-10A cells. To be noted: human, MCF-10A mammary gland epithelial cells. Format: cell-based. The procedure: The MCF-10A (human mammary gland epithelial) cell line was used in the cell viability experiment. Compounds 5a–k, 6a–c, and 7 were incubated with MCF-10A cells for 4 days at 50 µM concentration, and the viability of cells was determined using the 3-(4,5-dimethylthiazol-2-yl)-2,5-diphenyltetrazolium bromide (MTT) test.. All compounds had no cytotoxic effects, and the vitality of the cells was more than 83% for most of the compounds examined.
The MCF-10A (human mammary gland epithelial) cell line was used in the cell viability experiment. Compounds 5a–k, 6a–c, and 7 were incubated with MCF-10A cells for 4 days at 50 µM concentration, and the viability of cells was determined using the 3-(4,5-dimethylthiazol-2-yl)-2,5-diphenyltetrazolium bromide (MTT) test.

Data set [2] has as its system epithelial cancer cell line (A-549). Put plainly: Antiproliferative MTT assay, A-549. Format: cell-based. To be noted: Homo sapiens, A549; A-549, MTT; read-out: Antiproliferative Activity IC50 ± SEM A-549. An excerpt:
(§1) Using the MTT assay with doxorubicin as the reference drug, the antiproliferative activities of 5a–k, 6a–c, and 7 against four human cancer cell lines, including pancreas cancer cell line (Panc-1), breast cancer cell line (MCF-7), colon cancer cell line (HT-29), and epithelial cancer cell line (A-549) were investigated.
Background: Formazan colour is commonly taken as a measure of viable cells.

For data set [3], the system named is breast cancer cell line (MCF-7). Kind of data set: Antiproliferative MTT assay, MCF-7. Format: cell-based. The conditions noted are these: Homo sapiens, MCF7; MCF-7, MTT; read-out: Antiproliferative Activity IC50 ± SEM MCF-7.
Description: as §1

Data set [4] deals with pancreas cancer cell line (Panc-1). Kind of data set: Antiproliferative MTT assay, Panc-1. Format: cell-based. The conditions noted are these: Homo sapiens; Panc-1, MTT; read-out: Antiproliferative Activity IC50 ± SEM Panc-1.
Description: as §1

The subject of data set [5] is colon cancer cell line (HT-29). Put plainly: Antiproliferative MTT assay, HT-29. It is filed as cell-based. The conditions noted are these: Homo sapiens; HT-29, MTT; read-out: Antiproliferative Activity IC50 ± SEM HT-29.
Description: as §1

Data set [6] deals with four human cancer cell lines (Panc-1, MCF-7, HT-29, A-549). Put plainly: Antiproliferative MTT assay, average of four cancer cell lines (mean GI50). It is filed as cell-based. The conditions noted are these: Homo sapiens; average of A-549, MCF-7, Panc-1, HT-29; read-out: Antiproliferative Activity IC50 Average (GI50 against the four cell lines).
A further data set has as its target EGFR (Homo sapiens, UniProt P00533). Put plainly: EGFR-TK inhibitory assay. It is filed as biochemical. The conditions noted are these: read-out: EGFR Inhibition IC50 ± SEM.
For data set [7], the system named is Caspase-8 in MCF-7 breast cancer cell line. Put plainly: Caspase-8 level in MCF-7 cells. It is filed as cell-based, human. To be noted: for Caspase-8 Fold Change: vs control cells.
In data set [8] the test system is Caspase-9 in MCF-7 breast cancer cell line. Kind of data set: Caspase-9 level in MCF-7 cells. It is filed as cell-based, human. The conditions noted are these: for Caspase-9 Fold Change: vs control cells.
Data set [9] relates to Cytochrome C in MCF-7 human breast cancer cell line. Put plainly: Cytochrome C assay in MCF-7 cells. To be noted: for Cytochrome C Fold Change: vs untreated control cells. Format: cell-based. The procedure:
The quantity of cytochrome C within the cell is important for activating caspases and commencing the intrinsic apoptosis process. […] The findings add to the evidence that apoptosis can be attributed to Cytochrome C overexpression and activation of the intrinsic apoptotic pathway triggered by the investigated compounds.
Indole-2-carboxamide derivatives 5d, 5e, and 5h were evaluated as Cytochrome C activators in the MCF-7 human breast cancer cell line.

The subject of data set [10] is Bax in breast cancer cell line (MCF-7). Kind of data set: Bax level assay in MCF-7 cells. Format: cell-based, human. The conditions noted are these: for Bax Fold Change: increase over control untreated cells.
Data set [11] has as its system Bcl-2 in breast cancer cell line (MCF-7). Kind of data set: Bcl-2 level assay in MCF-7 cells. To be noted: for Bcl-2 Fold Change: reduced level vs control. It is filed as cell-based, human.
The next data set relates to p53 in MCF-7. Kind of data set: p53 transcription/level in MCF-7. The conditions noted are these: MCF-7 cells. It is filed as cell-based, human. An excerpt:
p53 is a unique protein that participates in several physiological processes such as cell metabolism, stem cell maintenance, and cell adhesion. Because p53 is frequently inactivated in cancer cells, the cells are unable to undergo apoptosis. Similarly, activating, or stabilizing p53 aids cancer cells in normalizing p53-controlled physiological processes and increasing apoptotic activity.

The target of the next data set is CDK2 enzyme (Homo sapiens, UniProt P24941). Put plainly: CDK2 inhibitory assay.
The test system of data set [12] is Caspase-3 in MCF-7 breast cancer cell line. Kind of data set: Caspase-3 level in MCF-7 cells. To be noted: for Caspase-3 Fold Change: vs control untreated cells.
Data set [13] concerns A549 lung, MCF-7 breast, Panc-1 Pancreatic, and HT-29 colon cancer cell lines. Also noted: method as in PMID 31128433. To be noted: A549, MCF-7, Panc-1, HT-29; read-out: GI50 against the four examined cell lines (mean GI50); cited from earlier work.

“And” between values parts separate entries of the source, which are not always exact repeats. Identical values can stand only once.

Chain of EGFR (P00533 25-1210): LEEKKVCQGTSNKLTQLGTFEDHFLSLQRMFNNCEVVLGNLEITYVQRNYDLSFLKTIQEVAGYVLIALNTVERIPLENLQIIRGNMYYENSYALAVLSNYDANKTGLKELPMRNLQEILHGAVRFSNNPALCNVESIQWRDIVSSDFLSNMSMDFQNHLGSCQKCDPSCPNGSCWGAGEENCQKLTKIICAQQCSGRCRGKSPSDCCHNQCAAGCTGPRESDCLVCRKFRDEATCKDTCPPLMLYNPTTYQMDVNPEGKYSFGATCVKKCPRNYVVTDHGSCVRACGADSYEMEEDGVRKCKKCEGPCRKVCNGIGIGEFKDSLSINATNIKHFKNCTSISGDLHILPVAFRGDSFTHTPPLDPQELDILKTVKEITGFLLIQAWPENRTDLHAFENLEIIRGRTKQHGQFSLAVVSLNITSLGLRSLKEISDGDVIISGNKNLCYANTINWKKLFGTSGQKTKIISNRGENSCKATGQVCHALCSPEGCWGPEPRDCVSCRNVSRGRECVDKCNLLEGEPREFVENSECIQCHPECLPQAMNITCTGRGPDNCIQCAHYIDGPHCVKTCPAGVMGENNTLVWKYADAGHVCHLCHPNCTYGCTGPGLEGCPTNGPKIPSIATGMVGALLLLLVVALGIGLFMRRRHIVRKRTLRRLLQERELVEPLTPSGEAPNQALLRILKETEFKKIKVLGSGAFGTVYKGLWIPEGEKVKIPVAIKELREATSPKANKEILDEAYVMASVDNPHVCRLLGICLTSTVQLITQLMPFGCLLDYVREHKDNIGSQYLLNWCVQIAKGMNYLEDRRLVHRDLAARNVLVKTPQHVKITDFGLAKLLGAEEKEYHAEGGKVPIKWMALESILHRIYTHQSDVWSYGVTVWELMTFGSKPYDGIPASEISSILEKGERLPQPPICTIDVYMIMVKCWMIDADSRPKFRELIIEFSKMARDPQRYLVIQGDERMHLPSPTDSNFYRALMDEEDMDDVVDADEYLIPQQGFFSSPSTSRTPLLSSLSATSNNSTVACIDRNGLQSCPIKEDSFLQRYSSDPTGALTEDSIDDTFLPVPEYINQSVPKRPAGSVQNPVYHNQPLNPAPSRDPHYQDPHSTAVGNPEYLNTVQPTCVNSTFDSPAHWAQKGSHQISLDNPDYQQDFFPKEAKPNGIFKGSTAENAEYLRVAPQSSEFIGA

Molecule `Cc1c(C(=O)NCCc2ccc(N3CCCC3C)cc2)[nH]c2ccc(Cl)cc12` (stereo not drawn) [Compound 5e, 5-Chloro-3-methyl-N-(4-(2-methylpyrrolidin-1-yl)phenethyl)-1H-indole-2-carboxamide] displayed a viability at 4 days, 50 µM in [1] of 93%. Further, the IC50 in [2] was 950 ± 50 nM. The concentration for half-maximal inhibition (IC50) in data set [3] stood at 800 ± 50 nM. In addition, the IC50 in data set [4] amounted to 1000 ± 200 nM. In addition, the IC50 in data set [5] worked out at 1100 ± 100 nM. For the same molecule, in data set [6], the IC50 was 950 nM. Besides, the 50% inhibitory concentration (IC50) on EGFR worked out at 93 ± 8 nM. Further, in data set [7], the “Caspase-8 Conc” value came to 2.17 ng/mL and the “Caspase-8 Fold Change” value was 10.90 fold. In data set [8], the “Caspase-9 Conc” value was 17.25 ng/mL and the “Caspase-9 Fold Change” value is listed as 18.15 fold. In data set [9], the “Cytochrome C Conc” value came out at 0.80 ng/mL and the “Cytochrome C Fold Change” value was found to be 16 fold. Further, in data set [10], the “Bax Conc” value is 296.50 pg/mL and 296.50 ± 2.50 pg/mL; the “Bax Fold Change” value is given as 36 fold. Further, in data set [11], the “Bcl-2 Conc” value is on record as 0.87 ng/mL and the “Bcl-2 Fold Change” value is 5.90 fold. Besides, the “p53 Conc” value with p53 in MCF-7 is 1435 pg/mL and 1435 ± 15 pg/mL. Further, the IC50 against CDK2 enzyme is 13 ± 1 nM. Further, the “fold more active than dinaciclib on CDK2” value at CDK2 enzyme (vs reference dinaciclib) is listed as 1.5 fold. In addition, in data set [12], the “Caspase-3 Conc” value is reported as 635.50 ± 5.50 pg/mL and the “Caspase-3 Fold Change” value is listed as 9.70 fold.

The molecule `Cc1c(C(=O)NCCc2ccc(N3CCOCC3)cc2)[nH]c2ccc(Cl)cc12` [Compound 5d, 5-Chloro-3-methyl-N-(4-morpholinophenethyl)-1H-indole-2-carboxamide] gave a melting point of 210 to 212 °C. The molecule also showed a viability at 4 days, 50 µM in [1] of 89%. Further, the IC50 in [2] is 1050 ± 100 nM. Besides, in data set [3], the half-maximal inhibitory concentration (IC50) came to 900 ± 100 nM. Besides, in data set [4], the half-inhibitory concentration (IC50) worked out at 1100 ± 100 nM. The half-inhibitory concentration (IC50) in [5] was 1100 ± 100 nM. Moreover, the IC50 in data set [6] stood at 1050 nM. Also, the “Caspase-8 Conc” value in [7] worked out at 1.94 ng/mL. In addition, in data set [8], the “Caspase-9 Conc” value is listed as 16.90 ng/mL. Further, the “Cytochrome C Conc” value in [9] was 0.70 ng/mL. The “Bax Conc” value in [10] is 290 pg/mL and 289.70 ± 2.50 pg/mL. In data set [11], the “Bcl-2 Conc” value was determined as 0.89 ng/mL. Moreover, the “p53 Conc” value with p53 in MCF-7 was 1375 pg/mL and 1375 ± 15 pg/mL. This molecule displayed an IC50 on CDK2 enzyme of 23 ± 2 nM. In addition, the “Caspase-3 Conc” value in data set [12] worked out at 570.00 ± 5.00 pg/mL.

For `Cc1c(C(=O)NCCc2ccc(N3CCCCC3)cc2)[nH]c2c(Cl)cc(Cl)cc12` [Compound 5h, 5,7-Dichloro-3-methyl-N-(4-(piperidin-1-yl)phenethyl)-1H-indole-2-carboxamide], the melting point lay in the range of 178 to 180 °C. In data set [1], this molecule gave a viability at 4 days, 50 µM of 87%. For the same molecule, the IC50 in data set [2] was 1000 ± 100 nM. The IC50 in data set [3] stood at 900 ± 100 nM. Further, the IC50 in data set [4] was determined as 1200 ± 100 nM. In addition, the IC50 in data set [5] came to 1200 ± 100 nM. In data set [6], the concentration for half-maximal inhibition (IC50) amounted to 1100 nM. For the same molecule, the IC50 on EGFR turned out to be 118 ± 10 nM. In data set [7], the “Caspase-8 Conc” value was 1.88 ng/mL and the “Caspase-8 Fold Change” value is 9.50 fold. Besides, in [8], the “Caspase-9 Conc” value is 16.65 ng/mL and the “Caspase-9 Fold Change” value came out at 17.50 fold. Besides, in data set [9], the “Cytochrome C Conc” value was 0.65 ng/mL and the “Cytochrome C Fold Change” value was 13 fold. The molecule also displayed an IC50 against CDK2 enzyme of 11 ± 1 nM. In addition, in [12], the “Caspase-3 Conc” value was 537.50 ± 5.00 pg/mL and the “Caspase-3 Fold Change” value turned out to be 8.20 fold.

On to `COc1cccc2c1C(=O)c1c(O)c3c(c(O)c1C2=O)C[C@@](O)(C(=O)CO)C[C@@H]3O[C@H]1C[C@H](N)[C@H](O)[C@H](C)O1` [Doxorubicin, reference compound], for which, in [2], the IC50 is 1200 ± 200 nM. For the same molecule, the IC50 in data set [3] was 900 ± 100 nM. In addition, the IC50 in [4] came out at 1400 ± 200 nM. Moreover, in [5], the half-inhibitory concentration (IC50) is 1000 ± 100 nM. The concentration for half-maximal inhibition (IC50) in data set [6] is 1100 nM. Besides, in data set [7], the “Caspase-8 Conc” value is given as 1.80 ng/mL and the “Caspase-8 Fold Change” value turned out to be 9.00 fold. Moreover, in [8], the “Caspase-9 Conc” value was determined as 16.25 ng/mL and the “Caspase-9 Fold Change” value is 17.00 fold. In addition, in [9], the “Cytochrome C Conc” value came to 0.60 ng/mL and the “Cytochrome C Fold Change” value came to 12 fold. For the same molecule, in [10], the “Bax Conc” value is 275.80 ± 2.50 pg/mL and the “Bax Fold Change” value came out at 33 fold. Moreover, in data set [11], the “Bcl-2 Conc” value is 0.98 ng/mL and the “Bcl-2 Fold Change” value came to 5.20 fold. In addition, the “p53 Conc” value in the data set with p53 in MCF-7 was 1265 ± 10 pg/mL. Besides, the “p53 Fold Change” value in the data set on p53 in MCF-7 (vs control) came to 25 fold. For the same molecule, the “p53 Conc” value in the data set with p53 in MCF-7 (listed as doxorubicin) came out at 1265 pg/mL. The GI50 in data set [13] is 1130 nM. Moreover, in [12], the “Caspase-3 Conc” value came to 503.50 ± 4.50 pg/mL and the “Caspase-3 Fold Change” value was found to be 7.70 fold.
